From BindingDB's records for doi:10.1021/jm00017a004 (Centre De Recherche Pierre Fabre, 1995)

target: Squalene monooxygenase (Sus scrofa); experiment: In vitro inhibitory activity against pig liver microsomal squalene epoxidase

`CCN(C/C=C/C#CC(C)(C)C)Cc1cccc(OC[Si](C)(C)c2ccc(C(=O)C(F)(F)F)cc2)c1` [1-{4-[(3-{[((E)-6,6-Dimethyl-hept-2-en-4-ynyl)-ethyl-amino]-methyl}-phenoxymethyl)-dimethyl-silanyl]-phenyl}-2,2,2-trifluoro-ethanone] and `CCN(C/C=C/C#CC(C)(C)C)Cc1cccc(OC[Si](C)(C)c2ccc(C(N)=O)cc2)c1` [4-[(3-{[((E)-6,6-Dimethyl-hept-2-en-4-ynyl)-ethyl-amino]-methyl}-phenoxymethyl)-dimethyl-silanyl]-benzamide] are the same in IC50: 5000 nM for the first, 5000 nM for the second.

`CCN(C/C=C/C#CC(C)(C)C)Cc1cccc(OC[Si](C)(C)c2ccc(C=O)cc2)c1` [4-[(3-{[((E)-6,6-Dimethyl-hept-2-en-4-ynyl)-ethyl-amino]-methyl}-phenoxymethyl)-dimethyl-silanyl]-benzaldehyde] and `C=Cc1ccc([Si](C)(C)COc2cccc(CN(CC)C/C=C/C#CC(C)(C)C)c2)cc1` [((E)-6,6-Dimethyl-hept-2-en-4-ynyl)-(3-{[dimethyl-(4-vinyl-phenyl)-silanyl]-methoxy}-benzyl)-ethyl-amine] are within 1.5-fold of each other in IC50: 100 nM for the first, 70 nM for the second.

`CCN(C/C=C/C#CC(C)(C)C)Cc1cccc(OC[Si](C)(C)c2ccc(S)cc2)c1` [4-[(3-{[((E)-6,6-Dimethyl-hept-2-en-4-ynyl)-ethyl-amino]-methyl}-phenoxymethyl)-dimethyl-silanyl]-benzenethiol] and `CCN(C/C=C/C#CC(C)(C)C)Cc1cccc(OC[Si](C)(C)c2ccc(O)cc2)c1` [4-[(3-{[((E)-6,6-Dimethyl-hept-2-en-4-ynyl)-ethyl-amino]-methyl}-phenoxymethyl)-dimethyl-silanyl]-phenol] are the same in IC50: 8000 nM for the first, 8000 nM for the second.

Compared with `CCN(C/C=C/C#CC(C)(C)C)Cc1cccc(OC[Si](C)(C)c2ccc(Br)cc2)c1` [(3-{[(4-Bromo-phenyl)-dimethyl-silanyl]-methoxy}-benzyl)-((E)-6,6-dimethyl-hept-2-en-4-ynyl)-ethyl-amine], `CCN(C/C=C/C#CC(C)(C)C)Cc1cccc(OC[Si](C)(C)c2ccc(Cl)cc2)c1` [(3-{[(4-Chloro-phenyl)-dimethyl-silanyl]-methoxy}-benzyl)-((E)-6,6-dimethyl-hept-2-en-4-ynyl)-ethyl-amine] is 1.9-fold higher in IC50: 210 nM for the first, 400 nM for the second.

Compared with `CCN(C/C=C/C#CC(C)(C)C)Cc1cccc(OC[Si](C)(C)c2ccccc2-c2ccsc2)c1` [((E)-6,6-Dimethyl-hept-2-en-4-ynyl)-(3-{[dimethyl-(2-thiophen-3-yl-phenyl)-silanyl]-methoxy}-benzyl)-ethyl-amine], `CCN(C/C=C/C#CC(C)(C)C)Cc1cccc(OC[Si](C)(C)c2ccccc2C(F)(F)F)c1` [((E)-6,6-Dimethyl-hept-2-en-4-ynyl)-(3-{[dimethyl-(2-trifluoromethyl-phenyl)-silanyl]-methoxy}-benzyl)-ethyl-amine] is 140-fold lower in IC50: 10000 nM for the first, 70 nM for the second. The second is the more potent here.

First: CCN(C/C=C/C#CC(C)(C)C)Cc1cccc(OC[Si](C)(C)c2ccc(F)cc2)c1 [((E)-6,6-Dimethyl-hept-2-en-4-ynyl)-ethyl-(3-{[(4-fluoro-phenyl)-dimethyl-silanyl]-methoxy}-benzyl)-amine]
Second: CCN(C/C=C/C#CC(C)(C)C)Cc1cccc(OC[Si](C)(C)c2ccc(C)cc2)c1 [((E)-6,6-Dimethyl-hept-2-en-4-ynyl)-{3-[(dimethyl-p-tolyl-silanyl)-methoxy]-benzyl}-ethyl-amine]
The IC50 of the first is 2-fold lower: 60 nM for the first, 120 nM for the second. The first is the more potent here.

Compared with `CCN(C/C=C/C#CC(C)(C)C)Cc1cccc(OC[Si](C)(C)c2ccc(OC)cc2)c1` [((E)-6,6-Dimethyl-hept-2-en-4-ynyl)-ethyl-(3-{[(4-methoxy-phenyl)-dimethyl-silanyl]-methoxy}-benzyl)-amine], `CCN(C/C=C/C#CC(C)(C)C)Cc1cccc(OC[Si](C)(C)c2cccc(C)c2)c1` [((E)-6,6-Dimethyl-hept-2-en-4-ynyl)-{3-[(dimethyl-m-tolyl-silanyl)-methoxy]-benzyl}-ethyl-amine] is 3.4-fold higher in IC50: 870 nM for the first, 3000 nM for the second.

First: CCN(C/C=C/C#CC(C)(C)C)Cc1cccc(OC[Si](C)(C)CCc2ccccc2)c1 [((E)-6,6-Dimethyl-hept-2-en-4-ynyl)-{3-[(dimethyl-phenethyl-silanyl)-methoxy]-benzyl}-ethyl-amine]
Second: CCN(C/C=C/C#CC(C)(C)C)Cc1cccc(OC[Si](C)(C)Cc2ccccc2)c1 [{3-[(Benzyl-dimethyl-silanyl)-methoxy]-benzyl}-((E)-6,6-dimethyl-hept-2-en-4-ynyl)-ethyl-amine]
The IC50 of the first is higher: greater than 10000 nM for the first, 130 nM for the second.

Compared with `CCN(C/C=C/C#CC(C)(C)C)Cc1cccc(OC[Si](C)(C)C2CCCCC2)c1` [{3-[(Cyclohexyl-dimethyl-silanyl)-methoxy]-benzyl}-((E)-6,6-dimethyl-hept-2-en-4-ynyl)-ethyl-amine], `CCN(CC#CC#CC(C)(C)OC)Cc1cccc(OC[Si](C)(C)c2ccccc2C)c1` [{3-[(Dimethyl-o-tolyl-silanyl)-methoxy]-benzyl}-ethyl-(6-methoxy-6-methyl-hepta-2,4-diynyl)-amine] is 290-fold lower in IC50: 20000 nM for the first, 70 nM for the second.
